Source: patent US20260250247A1, “NOVEL INDOLINE DERIVATIVE AND USE THEREOF” (CK REGEON INC., priority 2023, published 2026)

Experiments:
[1] = target: CXXC5-Dvl interaction (PDZ domain of Dvl (dishevelled) protein / PTD-DBM-FITC); assay: CXXC5-Dvl binding inhibition, competition of PTD-DBM-FITC on plate-bound Dvl PDZ domain; settings: purified Dvl PDZ domain 5 μg/mL, 10 μM PTD-DBM-FITC, compounds 0.001-100 μM, FITC fluorescence
Procedure: 5 μg/mL of the purified PDZ domain ofDvl (dishevelled) protein was attached to the bottom of a 96-well black immunoplate and left in a chamber at 4° C. for one day. The next day, each well was washed with PBS and 10 μM PTD-DBM-FITC was added. After incubation at room temperature for 3 hours, each well was washed with PBS. Each well was treated with the indoline derivatives at various concentrations (100, 10, 1, 0.1, 0.01, and 0.001 μM) in 100 μL of PBS. After washing with a buffer, fluorescence was measured by FITC using a microplate reader. A competition binding curve showing the degree of CXXC5-Dvl PPI inhibition was constructed using the GraphPad Prism software, and the IC50 value was calculated. […] CK090), and the intermediate compound 5-cyanoindirubin as controls.

3T3-L1 pre-adipocytes = assay: Inhibition of adipocyte differentiation and lipid accumulation, Oil Red O; assay type: cell-based; settings: Mus musculus, 192 h; 3T3-L1, compound 1 μM, MDI-induced differentiation for 8 days, Oil Red O eluted, absorbance 544 nm; read-out: lipid accumulation rate
Procedure: 3T3-L1 cells were seeded in a 6-well plate at a density of […] cells per well. The cells were grown to 100% confluency in Dulbecco's modified Eagle's medium (DMEM) supplemented with 10% bovine calf serum (BCS; GIBCO). Two days after reaching 100% confluency, differentiation was induced with or without treatment with the indoline compound at a concentration of 1 μM in DMEM containing 10% fetal bovine serum (FBS; GIBCO) and MDI (520 μM methylisobutylxanthine (IBMX; Sigma-Aldrich), 1 μM dexamethasone (Sigma-Aldrich), and 5 μM insulin (GIBCO)). On day 3, the medium was replaced with DMEM containing 10% FBS and 5 μM insulin with or without the indoline compound, and then with a fresh identical medium every 2 days. After differentiation for 8 days, the culture medium was removed, and the cells were washed with PBS and then fixed with 10% formaldehyde for 1 hour. After removing the 10% formaldehyde, the cells were washed thoroughly with distilled water. After that, 60% isopropanol was added and immediately then removed. After washing with distilled water, lipid droplets were stained with an Oil Red O dye solution for 20 minutes and then washed with distilled water. The cells were counterstained with Mayer's hematoxylin. Oil Red O images were visualized using a bright-field microscope (Nikon TE-2000U). To quantify the accumulated lipids, Oil Red O was eluted by adding isopropanol, and absorbance was measured spectrophotometrically at 544 nm using a multi-plate reader.
As A3051 (KY19382) and A3334, self-developed and synthesized materials were used. As BIO, or GSK 3 Inhibitor IX, also known as 6-bromoindirubin-3′-oxime, HY-10580 was purchased commercially.
In FIG. 2, the undifferentiated group (Un Diff) refers to undifferentiated adipocytes, or preadipocytes that had not been induced to differentiate, and the differentiated group (Diff) refers to fully differentiated adipocytes.

[2] = test system: lipid droplets / PPARγ in liver tissue; assay: Liver Oil Red O staining and PPARγ immunohistochemistry in MASH mice; assay type: in vivo, C57BL/6N mice; settings: 25 mg/kg/day orally for 4 weeks
Procedure: (§1) Five-week-old wild-type male C57BL/6N mice were purchased from Orient Bio Co., Ltd. They were allowed to acclimate to the laboratory environment for one week. Mice weighing 18-20 g on average were used in the experiment. To ensure ethical and scientific validity and efficient management of animal experiments, the experiment was conducted with the approval of the Institutional Review Board (IACUC-A-202205-1472-01) of Severance Hospital, Yonsei University College of Medicine.
(§2) The mice were divided into a normal group (NCD) and a high-fat diet group (HFD). The normal group (NCD) was fed a normal chow diet (NCD, Teklad Global 18% protein rodent diet), and the high-fat diet group (HFD) was fed a high-fat diet (HFD, D12492) in which fat accounted for 60% of the total calories, for 8 weeks.
(§3) Mice induced with metabolic dysfunction-associated steatohepatitis (MASH) (hereinafter, referred to as MASH or MASH group) were prepared by administering CCl4 intraperitoneally twice a week for 4 weeks after feeding the high-fat diet (HFD) for 8 weeks. The […] was diluted with corn oil at a ratio of 1:19 and injected at a dosage of 2 mL/kg. The normal group (NOD) was administered the same volume of physiological saline.
(§4) The animals were divided into 7 groups, each with 10 animals.
It was investigated whether the accumulation of triglycerides in the liver is suppressed effectively. For this purpose, liver tissue was extracted from each group, and it was prepared into 10-μm thick cryosections, which were then stained with Oil Red O. Details are as follows. After preparing the 7 groups, the animals were euthanized using carbon dioxide and the liver tissues were extracted. A certain area of the extracted liver tissue was cryosectioned to 10 μm thickness, fixed in 4% neutral paraformaldehyde for 20 minutes at room temperature, and washed with 70% isopropanol (Duksan Pure Chemicals). After staining with the Oil Red O (Sigma-Aldrich) reagent for 20 minutes, the sections were washed thoroughly three times with distilled water. The tissue was counterstained with Mayer's hematoxylin. Then, Oil Red O staining images were visualized using a bright-field microscope (Nikon TE-2000U).
After preparing the 7 groups, the animals were sacrificed using carbon dioxide and the liver tissues were extracted. The extracted tissues were fixed in 4% neutral paraformaldehyde and embedded in paraffin to prepare sections. The paraffin sections were cut to 4-μm thickness, deparaffinized, and then rehydrated. For antigen exposure, slides were autoclaved in a 10 mM sodium citrate buffer (pH 6.0). To block endogenous peroxidase activity prior to peroxidase IHC analysis, the tissues were incubated with 0.3% H2O2 for 10 minutes. The incubated sections were treated with phosphate-buffered saline (PBS) containing 10% NGS and 0.3% Tween-20 for 1 hour at room temperature, treated with primary antibodies of anti-PPARγ (1:50; Abcam), and incubated overnight at 4° C.
The sections treated with the primary antibodies were washed with PBS and incubated with biotinylated anti-mouse (1:400; Dako) or anti-rabbit (1:400; Dako) secondary antibodies for 1 hour at room temperature. The sections incubated with the secondary antibodies were stained with 3,3′-diaminobenzidine (DAB; Dako) for 3-7 minutes and then counterstained with Mayer's haematoxylin. All incubations were performed in a humid chamber. After the staining, images were taken and analyzed using a bright-field microscope (Nikon TE-2000U).

[3] = test system: mice induced with metabolic dysfunction-associated steatohepatitis (MASH); assay: Liver fibrosis score from collagen staining (Picrosirius red) in MASH mice; assay type: in vivo, C57BL/6N mice; settings: 25 mg/kg/day orally for 4 weeks, mean±SD, normal group 0, MASH group 3.11
Procedure: as §1, §2, §3, §4
After preparing the 7 groups, the animals were euthanized using carbon dioxide and the liver tissues were extracted. The extracted tissues were fixed in 4% neutral paraformaldehyde and embedded in paraffin to prepare sections. The paraffin sections were cut to 4-μm thickness, deparaffinized, and then rehydrated. The hydrated sections were stained with a Weigert's iron hematoxylin solution for 8 minutes and then with Picrosirius red for 1 hour. Collagen fibers were stained red and nuclei were stained blue. The sections were photographed using a bright-field microscope (Nikon TE-2000U).
The main mechanism of nonalcoholic fatty liver disease is the induction of hepatic stellate cell activation, which induces collagen production and leads to liver fibrosis due to collagen accumulation. From the result of collagen staining (Picrosirius red) for observing the total amount of collagen deposition in Test Example 3-6, the liver fibrosis score was analyzed. Stages 2 to 3 were diagnosed as nonalcoholic fatty liver disease (MASH) (M. Brunt et al., 2005).
All quantitative data are presented as mean±standard deviation (SD). In each experiment, all measurements were made at least three times, and data were analyzed using the two-tailed, unpaired Student's t test. P values of <0.05 were considered statistically significant.

Structure (SMILES)	IC50 [1]	activity at 1 µM (3T3-L1 pre-adipocytes)	lipid droplet formation and lipid infiltration in liver, Oil Red O staining [2]	Degree of liver fibrosis (fibrosis score) [3]	Degree of liver fibrosis (fibrosis score) ([3]; listed as CK004)
N#Cc1ccc2c(c1)/C(=C1/Nc3ccccc3/C1=N\OCCN1CCOCC1)C(=O)N2 [Example 2, (2Z,3E)-3-((2-morpholinoethoxy)imino)-2′-oxo-[2,3′-biindolinylidene]-5′-carbonitrile]	8.61 nM	32.3%	the size and number of lipid droplets were significantly reduced	1.85	–
CN1CCN(CCO/N=C2/C(=C3/C(=O)Nc4ccc(C#N)cc43)Nc3ccccc32)CC1 [Example 4, (2Z,3E)-3-((2-(4-methylpiperazin-1-yl)ethoxy)imino)-2′-oxo-[2,3′-biindolinylidene]-5′-carbonitrile]	20.9 nM	26%	a significant effect of inhibiting lipid infiltration at a level similar to that of the normal group (NCD)	0.67	0.67
N#Cc1ccc2c(c1)/C(=C1/Nc3ccccc3/C1=N\OCCN1CCSCC1)C(=O)N2 [Example 3, (2Z,3E)-2′-oxo-3-((2-thiomorpholinoethoxy)imino)-[2,3′-biindolinylidene]-5′-carbonitrile]	5.54 nM	28.9%	a significant effect of inhibiting lipid infiltration at a level similar to that of the normal group (NCD)	1.56	–
N#Cc1ccc2c(c1)/C(=C1/Nc3ccccc3/C1=N\OCCN1CCNCC1)C(=O)N2 [Example 1, (2Z,3E)-2′-oxo-3-((2-(piperazin-1-yl)ethoxy)imino)-[2,3′-biindolinylidene]-5′-carbonitrile]	19.3 nM	32.2%	the size and number of lipid droplets were significantly reduced	2.00	–
N#Cc1ccc2c(c1)/C(=C1/Nc3ccccc3/C1=N\OCCN1CCCC1)C(=O)N2 [Example 6, (2Z,3E)-2′-oxo-3-((2-(pyrrolidin-1-yl)ethoxy)imino)-[2,3′-biindolinylidene]-5′-carbonitrile]	37 nM	25.8%	–	–	–
